{"source": "paper PMC8129133", "about": "“Polymer-free corticosteroid dimer implants for controlled and sustained drug delivery” (Nature Communications, 2021)", "key": {"[1]": {"experiment": "Dissolution of intravitreal implants in the rabbit eye (IR imaging of implant diameter, model fit)", "format": "in vivo", "details": "for local surface dissolution rate constant / Implant Diameter (%): intravitreal; for local surface dissolution rate constant / Diameter of the drug delivery device / Diameter of drug delivery device: rabbit eye; for Implant Diameter (%): Fig 8b, 30 G × 6 mm implant, rabbit; for Diameter of the drug delivery device: script for Supp Fig 11a (30 G implant); for Diameter of drug delivery device: script for Supp Fig 11b, 32G × 6mm", "method": "Sample preparation. All implants were formed by melt extrusion of Dex-TEG-Dex, followed by cutting of implants to desired length. Samples were loaded into appropriate sized needles (27 G for 27 G implant, 30 G for 30 G, and 32 G implants), packaged, and sterilized by ethylene oxide gas.\nIR imaging. Wide-angle infrared (IR) imaging was performed at baseline, and monthly thereafter for implant imaging and eye health assessment. The imaging was performed using a Heidelberg Spectralis® imaging platform and IR images were analyzed using image analysis software (Image J v.1.8.0) to measure the diameter change of the implants. Three diameter measurements per image and a minimum of two images per implant were used to determine the diameter of the implant at each time point.\nMathematical modeling of drug release. Modeling of the Dex-TEG-Dex implants in the rabbit eye was performed using a compartmental model of drug release using MathWorks MATLAB R2020b. In this model, the drug delivery device is formed of solid drug dimer which undergoes surface erosion to release dimer into an intermediate domain. In the intermediate domain, dimer undergoes degradation to free drug and mono (linker-drug), which subsequently degrades to free linker and free drug. These components undergo transport to the target domain and are then cleared.\nThis model employs several simplifying assumptions. (1) The mechanism of surface dissolution is local (the same for each part of the surface independent of its location on the surface of the implant), in a manner dependent on the properties of the implant’s physiological location (e.g., dimer saturation). (2) Rate constants of processes are time independent, and the dissolution rates only depend on the corresponding changes in the shape of the delivery devices and properties of their environment. (3) Dimer degradation in the domain of interest occurs on a comparatively fast time scale such that the saturation concentration of dimer is not reached.\nA differential equation for the radius, R(t), of a cylindrical drug delivery device described by the compartmental model and derived using Noyes–Whitney equation[74],[75] can be written as (1):1 dR/dt=−DμY/ρh⋅y^*=−b, where D is a diffusion coefficient, µY is the molecular mass of the dimer, ρ is the density of the drug delivery device material, h is the thickness of the concentration gradient layer near the surface, y* is the saturation concentration of the dimer and b is the local surface dissolution rate.\nThe initial radius, R, of the cylindrical device is known: R0=R0 . Integrating Eq. (1) with this initial condition, gives Eq. (2):2 Rt=R0−b⋅t\nEquation (2) was fit to available data (time-dependent measurements of implant diameter) to estimate the local surface dissolution rate constant b for the 30 G × 6 mm and 32 G × 6 mm Dex-TEG-Dex intravitreal implants."}, "[2]": {"experiment": "Maximum soluble concentration in culture medium (HPLC)", "format": "physicochemical", "details": "plasma or biological fluid, kinetic from ethanol stock, fibroblast growth medium, 1% ethanol, sterile filtered", "method": "Human dermal fibroblasts were chosen for general cytotoxicity assessment as they are commonly employed in standard cytotoxicity testing outlined in ISO10993 guidelines. […] The resulting solution was sterile filtered (Pall) to remove any non-soluble components and the concentration of Dex-TEG-Dex was confirmed by HPLC (6.7 µg/ml). The […] control was regular culture medium with 1% ethanol, while the negative control was culture medium containing 5% DMSO. Following 24 h exposure to the different test groups, a WST-1 assay was performed. Briefly, WST-1 reagent (Roche) was mixed with growth medium at a 1:10 dilution, added to test groups, and incubated at 37 °C and 5% CO2 for 1 h. Supernatant was transferred to a new well and absorbance was measured at 450 nm. After 24 h exposure to test groups, samples were also visualized following Diff-Quik staining following the manufacturer’s recommended protocol (Siemens). Samples were imaged with a Leica DMIL microscope equipped with a Canon PowerShot S70 camera with ZoomBrowser Ex 5.0 software (Canon, version 5.0.0.142)."}}, "note": "“And” between values parts separate entries of the source, which are not always exact repeats. Equal values may be shown once.", "data": [{"smiles": "C[C@@H]1C[C@H]2[C@@H]3CCC4=CC(=O)C=C[C@]4(C)[C@@]3(F)[C@@H](O)C[C@]2(C)[C@@]1(O)C(=O)COC(=O)OCCOCCOCCOC(=O)OCC(=O)[C@@]1(O)[C@H](C)C[C@H]2[C@@H]3CCC4=CC(=O)C=C[C@]4(C)[C@@]3(F)[C@@H](O)C[C@@]21C", "note": "[Dex-TEG-Dex]", "values": [{"measurement": "local surface dissolution rate constant", "setting": "[1]; 30 G implant", "result": "0.1510 ± 0.0084", "unit": "µm/day"}, {"measurement": "local surface dissolution rate constant", "setting": "[1]; 32 G implant", "result": "0.1522 ± 0.0140", "unit": "µm/day"}, {"measurement": "Implant Diameter (%)", "setting": "[1]; 0 days", "result": "107.57% and 103.15% and 92.13% and 99.18% and 92.81% and 97.05% and 100.23% and 107.88%"}, {"measurement": "Implant Diameter (%)", "setting": "[1]; 35 days", "result": "87.55% and 86.70% and 88.00% and 92.68% and 90.49% and 81.42% and 103.34% and 91.71%"}, {"measurement": "Implant Diameter (%)", "setting": "[1]; 76 days", "result": "82.56% and 74.07% and 79.78% and 98.06% and 80.37% and 72.75% and 93.94%"}, {"measurement": "Implant Diameter (%)", "setting": "[1]; 128 days", "result": "76.90% and 66.50% and 66.32% and 64.24% and 79.47% and 77.51% and 67.41% and 82.08%"}, {"measurement": "Implant Diameter (%)", "setting": "[1]; 210 days", "result": "55.93% and 41.19% and 50.86% and 49.89% and 69.49% and 44.35% and 52.23% and 60.96%"}, {"measurement": "Diameter of the drug delivery device", "setting": "[1]; day 0", "result": "115.44 µm and 122.56 µm and 115.98 µm and 121.28 µm and 125.25 µm and 134.81 µm and 135.77 µm and 128.91 µm"}, {"measurement": "Diameter of the drug delivery device", "setting": "[1]; day 35", "result": "109.97 µm and 115.81 µm and 110.60 µm and 101.74 µm and 129.14 µm and 114.61 µm and 109.41 µm and 108.35 µm"}, {"measurement": "Diameter of the drug delivery device", "setting": "[1]; day 76", "result": "92.56 µm and 99.70 µm and 122.54 µm and 101.44 µm and 90.91 µm and 117.39 µm and 94.21 µm and 112.13 µm"}, {"measurement": "Diameter of the drug delivery device", "setting": "[1]; day 128", "result": "81.93 µm and 80.28 µm and 99.31 µm and 96.86 µm and 84.21 µm and 102.57 µm and 96.10 µm and 83.10 µm"}, {"measurement": "Diameter of the drug delivery device", "setting": "[1]; day 185", "result": "71.40 µm and 91.90 µm and 62.52 µm and 53.64 µm and 76.76 µm and 78.82 µm and 73.54 µm"}, {"measurement": "Diameter of the drug delivery device", "setting": "[1]; day 210", "result": "63.55 µm and 62.35 µm and 86.62 µm and 55.42 µm and 65.27 µm and 76.18 µm and 69.90 µm and 51.48 µm"}, {"measurement": "Diameter of drug delivery device", "setting": "[1]; day 0", "result": "71.94 µm and 80.30 µm and 83.05 µm and 99.99 µm and 86.79 µm and 101.43 µm and 116.40 µm and 84.89 µm"}, {"measurement": "Diameter of drug delivery device", "setting": "[1]; day 35", "result": "90.18 µm and 66.10 µm and 74.39 µm and 80.46 µm and 84.98 µm and 58.84 µm and 82.44 µm and 84.41 µm"}, {"measurement": "Diameter of drug delivery device", "setting": "[1]; day 76", "result": "77.98 µm and 58.21 µm and 73.62 µm and 66.12 µm and 67.29 µm and 54.07 µm and 65.40 µm and 64.89 µm"}, {"measurement": "Diameter of drug delivery device", "setting": "[1]; day 128", "result": "43.88 µm and 50.55 µm and 44.52 µm and 60.85 µm and 49.60 µm and 50.03 µm and 42.29 µm and 71.40 µm"}, {"measurement": "solubility", "setting": "[2]", "result": 6.7, "unit": "µg/mL"}]}]}
